This note sets out measurements from ChEMBL document CHEMBL3991601, “The target landscape of clinical kinase drugs” (Science, 2017).

Calls of active or inactive are those of the source. Some results are limits rather than exact numbers.

In general, Kd refers to the constant that tells how readily two partners part at equilibrium.

Assay [1] has as its target T1, Signal recognition particle receptor subunit alpha (Homo sapiens, UniProt P08240).
T1 sequence (P08240 whole entry): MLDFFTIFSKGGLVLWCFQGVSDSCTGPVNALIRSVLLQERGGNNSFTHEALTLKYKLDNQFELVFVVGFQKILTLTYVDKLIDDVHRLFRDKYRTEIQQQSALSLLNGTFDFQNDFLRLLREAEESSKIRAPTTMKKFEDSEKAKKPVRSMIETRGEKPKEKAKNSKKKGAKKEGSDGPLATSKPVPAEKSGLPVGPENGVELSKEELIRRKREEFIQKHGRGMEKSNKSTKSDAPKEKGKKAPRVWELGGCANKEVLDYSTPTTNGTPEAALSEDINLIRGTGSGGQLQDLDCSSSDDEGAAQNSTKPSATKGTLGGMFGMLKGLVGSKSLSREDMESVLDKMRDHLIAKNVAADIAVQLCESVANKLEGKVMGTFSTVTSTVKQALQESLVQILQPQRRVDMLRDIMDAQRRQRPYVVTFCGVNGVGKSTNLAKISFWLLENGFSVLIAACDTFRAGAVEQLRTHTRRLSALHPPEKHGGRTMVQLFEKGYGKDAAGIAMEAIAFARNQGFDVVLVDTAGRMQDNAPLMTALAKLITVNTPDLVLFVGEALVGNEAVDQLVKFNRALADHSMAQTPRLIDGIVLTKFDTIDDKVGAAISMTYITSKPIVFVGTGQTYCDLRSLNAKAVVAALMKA

Assay [2] addresses PAS domain-containing serine/threonine-protein kinase (Homo sapiens, UniProt Q96RG2).
For assay [3], the target named is Elongation factor Tu, mitochondrial (Homo sapiens, UniProt P49411).
In the next assay the target is T2, Scaffold protein ILK (Homo sapiens, UniProt Q13418).
T2 sequence (Q13418 whole entry): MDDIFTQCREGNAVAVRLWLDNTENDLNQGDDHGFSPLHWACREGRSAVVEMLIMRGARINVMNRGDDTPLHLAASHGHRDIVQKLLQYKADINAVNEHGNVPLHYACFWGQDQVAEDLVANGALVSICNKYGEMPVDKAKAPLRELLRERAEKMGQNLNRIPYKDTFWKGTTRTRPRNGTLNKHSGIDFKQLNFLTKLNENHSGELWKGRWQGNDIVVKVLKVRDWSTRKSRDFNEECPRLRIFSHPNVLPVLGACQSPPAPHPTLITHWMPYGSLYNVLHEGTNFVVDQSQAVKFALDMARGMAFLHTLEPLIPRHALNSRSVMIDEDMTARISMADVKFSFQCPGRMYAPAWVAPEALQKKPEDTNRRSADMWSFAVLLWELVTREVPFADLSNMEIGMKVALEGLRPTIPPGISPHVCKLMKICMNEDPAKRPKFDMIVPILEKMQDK

The next assay addresses T3, Ephrin type-B receptor 2 (Homo sapiens, UniProt P29323).
T3 sequence (P29323 whole entry): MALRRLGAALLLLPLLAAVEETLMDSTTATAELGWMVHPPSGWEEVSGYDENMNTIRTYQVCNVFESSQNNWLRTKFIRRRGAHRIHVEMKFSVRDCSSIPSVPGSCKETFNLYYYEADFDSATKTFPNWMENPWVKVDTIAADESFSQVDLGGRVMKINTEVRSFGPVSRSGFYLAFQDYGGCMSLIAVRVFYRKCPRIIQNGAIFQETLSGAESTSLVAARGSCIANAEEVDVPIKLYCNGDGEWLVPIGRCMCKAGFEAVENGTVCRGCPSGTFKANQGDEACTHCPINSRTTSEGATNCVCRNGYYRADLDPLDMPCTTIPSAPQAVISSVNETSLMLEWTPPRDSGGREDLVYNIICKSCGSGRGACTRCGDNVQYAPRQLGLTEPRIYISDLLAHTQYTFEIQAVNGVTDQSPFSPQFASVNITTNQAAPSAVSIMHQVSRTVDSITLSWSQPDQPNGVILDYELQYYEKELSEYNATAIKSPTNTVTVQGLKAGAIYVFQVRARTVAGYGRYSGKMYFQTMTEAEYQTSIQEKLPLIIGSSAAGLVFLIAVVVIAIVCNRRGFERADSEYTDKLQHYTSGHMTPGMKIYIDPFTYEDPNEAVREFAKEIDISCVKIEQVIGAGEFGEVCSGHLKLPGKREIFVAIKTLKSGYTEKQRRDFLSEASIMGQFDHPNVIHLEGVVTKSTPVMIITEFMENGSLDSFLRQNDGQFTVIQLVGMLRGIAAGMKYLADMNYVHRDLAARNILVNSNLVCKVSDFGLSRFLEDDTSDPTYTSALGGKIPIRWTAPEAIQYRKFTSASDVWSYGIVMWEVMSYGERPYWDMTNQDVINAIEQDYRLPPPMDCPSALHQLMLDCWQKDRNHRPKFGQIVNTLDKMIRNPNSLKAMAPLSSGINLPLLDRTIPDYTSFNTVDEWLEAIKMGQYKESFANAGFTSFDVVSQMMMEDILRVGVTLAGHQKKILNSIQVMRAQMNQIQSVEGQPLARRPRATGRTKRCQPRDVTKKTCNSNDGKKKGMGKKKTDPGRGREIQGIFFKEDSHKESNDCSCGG

Assay [4] concerns the target Platelet-derived growth factor receptor beta (Homo sapiens, UniProt P09619).
For assay [5], the target named is T4, Calcium/calmodulin-dependent protein kinase type IV (Homo sapiens, UniProt Q16566).
T4 sequence (Q16566 whole entry): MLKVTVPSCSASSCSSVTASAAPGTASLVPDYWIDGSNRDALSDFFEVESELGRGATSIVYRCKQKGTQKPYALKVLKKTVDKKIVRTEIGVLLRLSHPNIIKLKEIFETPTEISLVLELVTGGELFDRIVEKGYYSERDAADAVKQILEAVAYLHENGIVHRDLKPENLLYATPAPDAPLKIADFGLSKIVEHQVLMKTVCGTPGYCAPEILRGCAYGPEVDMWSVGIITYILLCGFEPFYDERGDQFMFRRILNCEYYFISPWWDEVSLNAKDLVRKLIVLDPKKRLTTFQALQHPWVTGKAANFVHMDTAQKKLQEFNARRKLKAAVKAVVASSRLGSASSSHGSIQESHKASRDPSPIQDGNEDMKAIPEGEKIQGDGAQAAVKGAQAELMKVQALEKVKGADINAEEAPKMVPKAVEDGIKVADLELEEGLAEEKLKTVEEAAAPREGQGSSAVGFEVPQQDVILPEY

The target in assay [6] is Eukaryotic translation initiation factor 2-alpha kinase 1 (Homo sapiens, UniProt Q9BQI3).
Sequence of Eukaryotic translation initiation factor 2-alpha kinase 1 (Q9BQI3 whole entry): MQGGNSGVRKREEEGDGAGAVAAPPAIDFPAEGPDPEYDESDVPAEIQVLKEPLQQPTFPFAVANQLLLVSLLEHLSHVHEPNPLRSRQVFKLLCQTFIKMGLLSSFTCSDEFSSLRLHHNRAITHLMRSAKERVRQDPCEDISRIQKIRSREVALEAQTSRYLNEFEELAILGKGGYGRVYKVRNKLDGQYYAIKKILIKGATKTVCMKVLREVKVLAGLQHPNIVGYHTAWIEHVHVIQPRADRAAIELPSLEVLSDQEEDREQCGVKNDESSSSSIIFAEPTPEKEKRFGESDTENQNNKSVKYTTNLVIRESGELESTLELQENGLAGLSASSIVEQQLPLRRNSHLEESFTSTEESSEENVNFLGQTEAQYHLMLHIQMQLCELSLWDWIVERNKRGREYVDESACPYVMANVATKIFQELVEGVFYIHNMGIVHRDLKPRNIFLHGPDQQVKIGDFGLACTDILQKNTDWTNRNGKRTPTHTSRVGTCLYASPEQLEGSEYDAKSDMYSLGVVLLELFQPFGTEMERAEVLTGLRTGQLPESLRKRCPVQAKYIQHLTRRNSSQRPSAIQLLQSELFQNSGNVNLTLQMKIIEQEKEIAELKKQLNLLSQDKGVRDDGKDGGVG
Assay [7] has as its target Hepatocyte growth factor receptor (Homo sapiens, UniProt P08581).
Also: in the data inactive means no Kd found up to 30 µM.

Sequence of Hepatocyte growth factor receptor (P08581 whole entry): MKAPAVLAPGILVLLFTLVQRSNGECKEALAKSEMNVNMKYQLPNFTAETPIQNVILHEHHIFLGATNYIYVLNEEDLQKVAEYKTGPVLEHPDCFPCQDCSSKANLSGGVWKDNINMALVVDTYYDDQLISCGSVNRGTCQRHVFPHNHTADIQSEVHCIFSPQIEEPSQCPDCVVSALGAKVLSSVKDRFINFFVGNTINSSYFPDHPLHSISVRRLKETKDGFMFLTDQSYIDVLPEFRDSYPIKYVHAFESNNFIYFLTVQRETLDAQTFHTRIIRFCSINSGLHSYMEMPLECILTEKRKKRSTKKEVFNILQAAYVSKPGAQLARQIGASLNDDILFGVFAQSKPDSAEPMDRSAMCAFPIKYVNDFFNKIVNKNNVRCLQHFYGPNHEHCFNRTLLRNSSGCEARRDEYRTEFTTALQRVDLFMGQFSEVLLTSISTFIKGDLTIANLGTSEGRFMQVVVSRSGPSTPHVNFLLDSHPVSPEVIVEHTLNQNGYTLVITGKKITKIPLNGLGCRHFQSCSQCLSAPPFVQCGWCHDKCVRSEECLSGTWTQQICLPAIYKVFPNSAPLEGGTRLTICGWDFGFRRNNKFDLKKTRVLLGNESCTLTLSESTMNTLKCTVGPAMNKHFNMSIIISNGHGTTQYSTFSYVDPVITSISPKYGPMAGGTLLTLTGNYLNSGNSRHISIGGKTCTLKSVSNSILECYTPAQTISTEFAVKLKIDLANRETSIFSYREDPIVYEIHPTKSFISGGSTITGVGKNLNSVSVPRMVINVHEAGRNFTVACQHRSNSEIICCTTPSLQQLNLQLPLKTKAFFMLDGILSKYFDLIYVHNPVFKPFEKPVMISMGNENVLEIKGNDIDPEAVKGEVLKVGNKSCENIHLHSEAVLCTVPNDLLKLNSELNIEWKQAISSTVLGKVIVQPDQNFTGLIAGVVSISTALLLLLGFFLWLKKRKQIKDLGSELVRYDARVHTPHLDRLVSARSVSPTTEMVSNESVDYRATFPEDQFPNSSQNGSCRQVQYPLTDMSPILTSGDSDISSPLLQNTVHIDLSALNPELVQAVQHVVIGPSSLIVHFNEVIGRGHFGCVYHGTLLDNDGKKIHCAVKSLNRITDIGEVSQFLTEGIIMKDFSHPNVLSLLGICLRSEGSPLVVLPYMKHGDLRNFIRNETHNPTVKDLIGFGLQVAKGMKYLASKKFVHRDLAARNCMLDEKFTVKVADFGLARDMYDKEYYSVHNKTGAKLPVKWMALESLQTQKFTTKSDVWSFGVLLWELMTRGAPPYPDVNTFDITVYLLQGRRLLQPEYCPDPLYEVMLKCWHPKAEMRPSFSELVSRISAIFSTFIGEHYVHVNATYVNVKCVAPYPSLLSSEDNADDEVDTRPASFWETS
Sequence of PAS domain-containing serine/threonine-protein kinase (Q96RG2 whole entry, the tested form may be a part): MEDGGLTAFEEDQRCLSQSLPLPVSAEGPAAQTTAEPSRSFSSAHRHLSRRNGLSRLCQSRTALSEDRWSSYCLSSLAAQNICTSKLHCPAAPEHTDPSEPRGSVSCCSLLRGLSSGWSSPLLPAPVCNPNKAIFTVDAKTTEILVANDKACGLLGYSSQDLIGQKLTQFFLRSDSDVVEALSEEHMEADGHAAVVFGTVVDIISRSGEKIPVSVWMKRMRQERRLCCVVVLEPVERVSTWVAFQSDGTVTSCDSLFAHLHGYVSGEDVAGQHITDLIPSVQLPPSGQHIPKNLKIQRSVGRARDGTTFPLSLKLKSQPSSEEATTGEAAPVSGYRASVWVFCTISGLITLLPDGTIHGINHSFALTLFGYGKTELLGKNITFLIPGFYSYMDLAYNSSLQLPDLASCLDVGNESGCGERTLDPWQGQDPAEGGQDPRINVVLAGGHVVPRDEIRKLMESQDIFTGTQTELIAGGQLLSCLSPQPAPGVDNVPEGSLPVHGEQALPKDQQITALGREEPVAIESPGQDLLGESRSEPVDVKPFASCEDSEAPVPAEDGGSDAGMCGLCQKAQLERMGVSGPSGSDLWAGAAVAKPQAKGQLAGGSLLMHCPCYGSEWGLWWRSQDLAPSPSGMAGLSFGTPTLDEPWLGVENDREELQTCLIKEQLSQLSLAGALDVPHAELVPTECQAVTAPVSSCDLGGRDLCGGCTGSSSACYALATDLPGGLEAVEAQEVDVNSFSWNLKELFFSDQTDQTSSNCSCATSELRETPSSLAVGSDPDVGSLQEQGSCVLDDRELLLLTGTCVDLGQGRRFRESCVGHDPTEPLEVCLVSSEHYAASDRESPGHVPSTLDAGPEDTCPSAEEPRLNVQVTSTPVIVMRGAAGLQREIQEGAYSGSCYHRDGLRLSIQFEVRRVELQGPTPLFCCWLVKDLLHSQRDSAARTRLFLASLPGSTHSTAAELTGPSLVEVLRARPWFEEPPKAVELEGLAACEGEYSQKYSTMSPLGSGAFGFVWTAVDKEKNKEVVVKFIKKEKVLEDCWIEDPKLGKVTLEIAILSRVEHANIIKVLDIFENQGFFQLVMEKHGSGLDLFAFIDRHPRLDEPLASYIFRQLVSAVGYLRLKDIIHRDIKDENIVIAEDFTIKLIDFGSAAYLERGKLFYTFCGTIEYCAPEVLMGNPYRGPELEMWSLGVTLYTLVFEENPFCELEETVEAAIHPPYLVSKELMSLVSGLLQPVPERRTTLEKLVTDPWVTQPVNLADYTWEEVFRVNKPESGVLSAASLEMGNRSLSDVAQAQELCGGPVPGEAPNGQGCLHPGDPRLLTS
Sequence of Platelet-derived growth factor receptor beta (P09619 whole entry): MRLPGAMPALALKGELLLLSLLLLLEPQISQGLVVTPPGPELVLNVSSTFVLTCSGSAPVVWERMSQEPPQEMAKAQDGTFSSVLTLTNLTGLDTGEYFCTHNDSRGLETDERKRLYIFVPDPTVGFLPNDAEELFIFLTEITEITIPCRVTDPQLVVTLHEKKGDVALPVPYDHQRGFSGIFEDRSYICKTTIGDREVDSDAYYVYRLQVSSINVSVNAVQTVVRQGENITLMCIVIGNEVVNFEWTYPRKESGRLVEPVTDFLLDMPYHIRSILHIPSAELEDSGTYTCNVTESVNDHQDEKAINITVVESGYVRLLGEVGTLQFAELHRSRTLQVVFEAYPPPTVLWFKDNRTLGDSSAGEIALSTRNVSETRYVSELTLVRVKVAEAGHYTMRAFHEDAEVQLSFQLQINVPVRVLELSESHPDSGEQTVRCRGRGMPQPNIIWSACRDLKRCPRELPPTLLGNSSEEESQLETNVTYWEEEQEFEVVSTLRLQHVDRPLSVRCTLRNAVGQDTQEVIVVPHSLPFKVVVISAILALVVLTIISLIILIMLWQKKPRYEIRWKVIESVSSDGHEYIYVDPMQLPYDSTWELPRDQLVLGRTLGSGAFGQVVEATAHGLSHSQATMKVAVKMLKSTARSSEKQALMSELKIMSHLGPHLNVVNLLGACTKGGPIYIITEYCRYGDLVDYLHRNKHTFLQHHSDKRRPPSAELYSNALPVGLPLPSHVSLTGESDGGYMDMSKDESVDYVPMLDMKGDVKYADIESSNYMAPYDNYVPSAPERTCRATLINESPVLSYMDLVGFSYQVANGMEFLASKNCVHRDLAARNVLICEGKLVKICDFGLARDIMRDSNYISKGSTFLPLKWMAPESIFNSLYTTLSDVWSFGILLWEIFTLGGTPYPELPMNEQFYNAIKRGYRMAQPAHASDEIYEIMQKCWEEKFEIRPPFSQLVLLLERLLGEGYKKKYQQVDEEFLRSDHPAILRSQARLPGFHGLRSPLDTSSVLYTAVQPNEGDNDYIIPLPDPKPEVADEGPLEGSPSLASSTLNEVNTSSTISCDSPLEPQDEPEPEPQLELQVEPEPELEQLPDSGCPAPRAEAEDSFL

On to `CNC(=O)c1ccccc1Sc1ccc2c(/C=C/c3ccccn3)n[nH]c2c1` [AXITINIB], for which the Kd (in [1]; in assay [2]; in assay [3]; on Scaffold protein ILK) was > 30 µM (inactive) each time.

With `CC(C)(C)c1nc(-c2cccc(NS(=O)(=O)c3c(F)cccc3F)c2F)c(-c2ccnc(N)n2)s1` [DABRAFENIB], the Kd (in assay [1]; in [2]; in [3]; on Ephrin type-B receptor 2; at Scaffold protein ILK) was > 30 µM (inactive) each time.

On to `O=C(Nc1nc2cccc(-c3ccc(CN4CCS(=O)(=O)CC4)cc3)n2n1)C1CC1` [FILGOTINIB], for which the Kd (in [4]; in assay [5]; in assay [1]; in assay [6]; in assay [3]; on Ephrin type-B receptor 2) was > 30 µM (inactive) each time. For the same compound, the Kd (on Scaffold protein ILK; in assay [7]) was > 30 µM (inactive) each time.

As for `C[C@@H](Oc1cc(-n2cnc3ccc(CN4CCN(C)CC4)cc32)sc1C(N)=O)c1ccccc1C(F)(F)F` [GSK-461364], the Kd (in [1]; in assay [2]; in assay [3]; on Scaffold protein ILK) was > 30 µM (inactive) in each case.

For the compound `O=C(Nc1cc(C(F)(F)F)cc(C(F)(F)F)c1)c1cc(Cl)ccc1O` [IMD-0354], the Kd (in [4]; in assay [5]; in [1]; in [6]; in [3]; on Ephrin type-B receptor 2) was > 30 µM (inactive) throughout. The Kd (at Scaffold protein ILK; in assay [7]) was > 30 µM (inactive) each time.

As for `CNC(=O)c1cccc2cc(Oc3ccnc4cc(OCC5(N)CC5)c(OC)cc34)ccc12` [LUCITANIB], the Kd in assay [4] was 0.278 µM; in assay [5] it was > 30 µM (inactive); in assay [1] it was > 30 µM (inactive); in assay [6], > 30 µM (inactive); in assay [3], > 30 µM (inactive); on Ephrin type-B receptor 2, > 30 µM (inactive). Moreover, the Kd (at Scaffold protein ILK; in assay [7]) was > 30 µM (inactive) throughout.

In the case of `CNC(=O)c1nn(C)c2c1C(C)(C)Cc1cnc(Nc3ccc(N4CCN(C)CC4)cc3)nc1-2` [MILCICLIB], the Kd was > 30 µM (inactive) in [5]; > 30 µM (inactive) in assay [1]; > 30 µM (inactive) in assay [2]; > 30 µM (inactive) in [6]; > 30 µM (inactive) in [3]; 0.767 µM (active) at Ephrin type-B receptor 2. Moreover, the Kd on Scaffold protein ILK was > 30 µM (inactive).

For the compound `CN(C[C@@H]1COCCO1)S(=O)(=O)Nc1ccc2ccc3ncc(-c4cnn(C)c4)cc3c(=O)c2c1` [MK-2461], the Kd in [4] was 0.543 µM; in [5], > 30 µM (inactive); in [1] it was > 30 µM (inactive); in assay [6], > 30 µM (inactive); in assay [3], > 30 µM (inactive); on Ephrin type-B receptor 2, > 30 µM (inactive). The Kd (at Scaffold protein ILK; in assay [7]) was > 30 µM (inactive) throughout.

On to `NC(=O)c1c(OCc2c(F)cc(Br)cc2F)nsc1NC(=O)NCCCCN1CCCC1` [OSI-632], for which the Kd is > 30 µM (inactive) in [5]; > 30 µM (inactive) in assay [1]; > 30 µM (inactive) in assay [2]; 3.57 µM (active) in [6]; > 30 µM (inactive) in assay [3]; > 30 µM (inactive) on Ephrin type-B receptor 2. In addition, the Kd on Scaffold protein ILK was > 30 µM (inactive).

Take `CCOc1cc2ncc(C#N)c(Nc3ccc(F)c(Cl)c3)c2cc1NC(=O)/C=C/CN(C)C` [PELITINIB]: the Kd (in assay [4]; in [5]; in assay [2]; in [6]; in assay [3]; at Ephrin type-B receptor 2) was > 30 µM (inactive) in each case. Besides, the Kd on Scaffold protein ILK is > 30 µM (inactive).

In the case of `CC(=O)NCC(=O)N1[C@@H]2CC[C@H]1c1ccc(Nc3ncc(C(F)(F)F)c(NC4CCC4)n3)cc12` [PF-03814735], the Kd (in assay [5]; in [1]; in [2]; in assay [6]; in assay [3]; on Ephrin type-B receptor 2) was > 30 µM (inactive) throughout. Moreover, the Kd at Scaffold protein ILK was > 30 µM (inactive).

Regarding `CO[C@H]1C[C@@H]2CC[C@@H](C)[C@@](O)(O2)C(=O)C(=O)N2CCCC[C@H]2C(=O)O[C@H]([C@H](C)C[C@@H]2CC[C@@H](OP(C)(C)=O)[C@H](OC)C2)CC(=O)[C@H](C)/C=C(\C)[C@@H](O)[C@@H](OC)C(=O)[C@H](C)C[C@H](C)/C=C/C=C/C=C/1C` [RIDAFOROLIMUS], the Kd (in [4]; in [5]; in assay [1]; in assay [6]; in [3]; at Ephrin type-B receptor 2) was > 30 µM (inactive) in each case. Moreover, the Kd (at Scaffold protein ILK; in assay [7]) was > 30 µM (inactive) throughout.

Take `O=C(NOCCO)c1cc(CN2OCCCC2=O)c(F)c(F)c1Nc1ccc(I)cc1F` [RO-4987655]: the Kd (in assay [1]; in [2]; in assay [3]; on Scaffold protein ILK) was > 30 µM (inactive) each time.

For `N#CC[C@H](C1CCCC1)n1cc(-c2ncnc3[nH]ccc23)cn1` [RUXOLITINIB], the Kd (in assay [2]; in assay [3]; on Scaffold protein ILK) was > 30 µM (inactive) each time.
